Test results: US9179694B2, “Method and composition for enhancing milk production and milk component concentrations” (PURINA ANIMAL NUTRITION LLC, priority 2003, dated 2015)
Marks after values point to notes of the source that are not given here.

Experiment: True protein content of produced milk in sorbitol feeding trials
Assay type: in vivo, Holstein cows
Conditions: for True Protein in Produced Milk: Pre-Partum Trial #1 (75/0/0 g/day in wk −3..−1/+1..+4/+5..+8)
Experimental: To determine the percent of total protein, wet basis, in a sample, the actual weight of total protein is determined in accordance with Method #991.20 (33.2.11) of Official Methods of Analysis, Association of Official Analytical Chemists (AOAC) (16th Ed., 1995). The value determined by the above method yields “total Kjeldahl nitrogen,” which is equivalent to “total protein” since the above method incorporates a factor that accounts for the average amount of nitrogen in protein. Since any and all total Kjeldahl nitrogen determinations presented herein are based on the above method, the terms “total Kjeldahl nitrogen” and “total protein” are used interchangeably herein. Furthermore, those skilled in the art will recognize that the term “total Kjeldahl nitrogen” is generally used in the art to mean “total protein” with the understanding that the factor has been applied. The weight percent total protein, wet basis, is calculated by dividing the actual weight of total protein by the actual weight of the sample. The weight percent of true protein, wet basis, for a particular sample is calculated after first determining the wet basis weight percent of total Kjeldahl nitrogen and the wet basis weight percent of non-protein nitrogen in the sample. The wet basis weight percent of total Kjeldahl nitrogen in the sample is determined using the method referenced above. The wet basis weight percent of non-protein nitrogen (NPN) in the sample is determined in accordance with Method #991.21 (33.2.12) of Official Methods of Analysis, Association of Official Analytical Chemists (AOAC) (16th Ed., 1995). The weight percent of true protein, wet basis, in the sample is then determined by subtracting the wet basis weight percent of non-protein nitrogen in the sample from the wet basis weight percent of total Kjeldahl nitrogen in the sample. Each cow of each of the six different trials (Control Trial #1, Control Trial #2, Pre-Partum Trial #1, Pre-Partum Trial #2, Pre/Post Trial #1, and Pre/Post Trial #2) was milked three times daily and the weight of produced milk by each cow was recorded at each milking. The milk from each cow was sampled once per week (⅓ of the sample volume from each of the three milkings occurring on the weekly milk sampling day) and was analyzed for true protein, total fat, lactose, and total solids, as detailed in the property determination and characterization techniques presented above. Additionally, samples of blood were periodically obtained from each cow during the four trials (Control Trial 2, Pre-Partum Trial #2, Pre/Post Trial #1, and Pre/Post Trial #2) encompassed in Example Two and were analyzed for non-esterified fatty acid (NEFA) content as detailed in the property determination and characterization techniques presented above. No NEFA analysis was conducted on the cows employed in Control Trial #1 or Pre-Partum Trial #1 that are the subject of Example One. Example One includes Control Trial #1 and Pre-Partum Trial #1. Both primiparious cows and multiparious cows were included in Control Trial #1 and Pre-Partum Trial #1. Five primiparious cows and fifteen multiparious cows were included in Control Trial #1; likewise, five primiparious cows and fifteen multiparious cows were included in Pre-Partum Trial #1. All cows included in Control Trial #1 and Pre-Partum Trial #1 were Holsteins. Example Two includes Control Trial #2, Pre-Partum Trial #2, Pre/Post Trial #1, and Pre/Post Trial #2. Only multiparious, Holstein cows were included in Control Trial #2, Pre-Partum Trial #1, Pre/Post Trial #1, and Pre/Post Trial #2. Eighteen multiparious cows were included in both Control Trial #2 and Pre-Partum Trial #2, while sixteen multiparious cows were included in Pre/Post Trial #1 and seventeen multiparious cows were included in Pre/Post Trial #2.

## OC[C@@H](O)[C@@H](O)[C@H](O)[C@@H](O)CO [sorbitol]
Multiparious cows, weeks +1 through +8
  True Protein in Produced Milk: 2.82 wt %
Primiparious cows, weeks +1 through +8
  True Protein in Produced Milk: 2.9 wt %
Pre-Partum Trial #1 (75 g/day wk −3..−1 only) versus Control Trial #1, primiparious cows, weeks +1 through +8
  increase in true protein concentration in the produced milk: 7.4%
Pre-Partum Trial #2 (75/0/100 g/day in wk −3..−1/+1..+4/+5..+8), multiparious cows, week +1
  True Protein Content of Produced Milk: 3.95 weight %
Pre-Partum Trial #2 (75/0/100 g/day in wk −3..−1/+1..+4/+5..+8), multiparious cows, week +2
  True Protein Content of Produced Milk: 3.14 weight %
Pre-Partum Trial #2 (75/0/100 g/day in wk −3..−1/+1..+4/+5..+8), multiparious cows, week +3
  True Protein Content of Produced Milk: 2.81 weight %
Pre-Partum Trial #2 (75/0/100 g/day in wk −3..−1/+1..+4/+5..+8), multiparious cows, week +4
  True Protein Content of Produced Milk: 2.71^ab weight %
Pre-Partum Trial #2 (75/0/100 g/day in wk −3..−1/+1..+4/+5..+8), multiparious cows, week +5
  True Protein Content of Produced Milk: 2.63 weight %
Pre-Partum Trial #2 (75/0/100 g/day in wk −3..−1/+1..+4/+5..+8), multiparious cows, week +6
  True Protein Content of Produced Milk: 2.62 weight %
Pre-Partum Trial #2 (75/0/100 g/day in wk −3..−1/+1..+4/+5..+8), multiparious cows, week +7
  True Protein Content of Produced Milk: 2.60 weight %
Pre-Partum Trial #2 (75/0/100 g/day in wk −3..−1/+1..+4/+5..+8), multiparious cows, week +8
  True Protein Content of Produced Milk: 2.56 weight %
Pre-Partum Trial #2 (75/0/100 g/day in wk −3..−1/+1..+4/+5..+8), multiparious cows, weeks +1 through +4
  True Protein Content of Produced Milk: 3.11 weight %
Pre-Partum Trial #2 (75/0/100 g/day in wk −3..−1/+1..+4/+5..+8), multiparious cows, weeks +1 through +8
  True Protein Content of Produced Milk: 2.86 weight %
Pre-Partum Trial #2 (75/0/100 g/day in wk −3..−1/+1..+4/+5..+8), multiparious cows, weeks +5 through +8
  True Protein Content of Produced Milk: 2.60 weight %
Pre/Post Trial #1 (150/125/100 g/day in wk −3..−1/+1..+4/+5..+8), multiparious cows, week +1
  True Protein Content of Produced Milk: 4.01 weight %
Pre/Post Trial #1 (150/125/100 g/day in wk −3..−1/+1..+4/+5..+8), multiparious cows, week +1, two-trial comparison with Control Trial #2 (Table 24)
  True Protein Content of Produced Milk: 4.01 weight %
Pre/Post Trial #1 (150/125/100 g/day in wk −3..−1/+1..+4/+5..+8), multiparious cows, week +2
  True Protein Content of Produced Milk: 3.17 weight %
Pre/Post Trial #1 (150/125/100 g/day in wk −3..−1/+1..+4/+5..+8), multiparious cows, week +2, two-trial comparison with Control Trial #2 (Table 24)
  True Protein Content of Produced Milk: 3.17 weight %
Pre/Post Trial #1 (150/125/100 g/day in wk −3..−1/+1..+4/+5..+8), multiparious cows, week +3
  True Protein Content of Produced Milk: 2.85 weight %
Pre/Post Trial #1 (150/125/100 g/day in wk −3..−1/+1..+4/+5..+8), multiparious cows, week +3, two-trial comparison with Control Trial #2 (Table 24)
  True Protein Content of Produced Milk: 2.85 weight %
Pre/Post Trial #1 (150/125/100 g/day in wk −3..−1/+1..+4/+5..+8), multiparious cows, week +4
  True Protein Content of Produced Milk: 2.73^ab weight %
Pre/Post Trial #1 (150/125/100 g/day in wk −3..−1/+1..+4/+5..+8), multiparious cows, week +4, two-trial comparison with Control Trial #2 (Table 24)
  True Protein Content of Produced Milk: 2.73 weight %
Pre/Post Trial #1 (150/125/100 g/day in wk −3..−1/+1..+4/+5..+8), multiparious cows, week +5
  True Protein Content of Produced Milk: 2.65 weight %
Pre/Post Trial #1 (150/125/100 g/day in wk −3..−1/+1..+4/+5..+8), multiparious cows, week +5, two-trial comparison with Control Trial #2 (Table 24)
  True Protein Content of Produced Milk: 2.65 weight %
Pre/Post Trial #1 (150/125/100 g/day in wk −3..−1/+1..+4/+5..+8), multiparious cows, week +6
  True Protein Content of Produced Milk: 2.61 weight %
Pre/Post Trial #1 (150/125/100 g/day in wk −3..−1/+1..+4/+5..+8), multiparious cows, week +6, two-trial comparison with Control Trial #2 (Table 24)
  True Protein Content of Produced Milk: 2.61 weight %
Pre/Post Trial #1 (150/125/100 g/day in wk −3..−1/+1..+4/+5..+8), multiparious cows, week +7
  True Protein Content of Produced Milk: 2.57 weight %
Pre/Post Trial #1 (150/125/100 g/day in wk −3..−1/+1..+4/+5..+8), multiparious cows, week +7, two-trial comparison with Control Trial #2 (Table 24)
  True Protein Content of Produced Milk: 2.57 weight %
Pre/Post Trial #1 (150/125/100 g/day in wk −3..−1/+1..+4/+5..+8), multiparious cows, week +8
  True Protein Content of Produced Milk: 2.65 weight %
Pre/Post Trial #1 (150/125/100 g/day in wk −3..−1/+1..+4/+5..+8), multiparious cows, week +8, two-trial comparison with Control Trial #2 (Table 24)
  True Protein Content of Produced Milk: 2.65 weight %
Pre/Post Trial #1 (150/125/100 g/day in wk −3..−1/+1..+4/+5..+8), multiparious cows, weeks +1 through +4
  True Protein Content of Produced Milk: 3.18 weight %
Pre/Post Trial #1 (150/125/100 g/day in wk −3..−1/+1..+4/+5..+8), multiparious cows, weeks +1 through +4, two-trial comparison with Control Trial #2 (Table 24)
  True Protein Content of Produced Milk: 3.18 weight %
Pre/Post Trial #1 (150/125/100 g/day in wk −3..−1/+1..+4/+5..+8), multiparious cows, weeks +1 through +8
  True Protein Content of Produced Milk: 2.90 weight %
Pre/Post Trial #1 (150/125/100 g/day in wk −3..−1/+1..+4/+5..+8), multiparious cows, weeks +1 through +8, two-trial comparison with Control Trial #2 (Table 24)
  True Protein Content of Produced Milk: 2.90 weight %
Pre/Post Trial #1 (150/125/100 g/day in wk −3..−1/+1..+4/+5..+8), multiparious cows, weeks +5 through +8
  True Protein Content of Produced Milk: 2.62 weight %
Pre/Post Trial #1 (150/125/100 g/day in wk −3..−1/+1..+4/+5..+8), multiparious cows, weeks +5 through +8, two-trial comparison with Control Trial #2 (Table 24)
  True Protein Content of Produced Milk: 2.62 weight %
Pre/Post Trial #1 (150/125/100 g/day) versus Control Trial #2, multiparious cows, weeks +1 through +4 (Table 24)
  increase in true protein concentration in milk: 4.6%
Pre/Post Trial #1 (150/125/100 g/day) versus Control Trial #2, multiparious cows, weeks +1 through +8 (Table 24)
  increase in true protein concentration in milk: 2.8%
Pre/Post Trial #2 (75/75/100 g/day in wk −3..−1/+1..+4/+5..+8), multiparious cows, week +1
  True Protein Content of Produced Milk: 3.96 weight %
Pre/Post Trial #2 (75/75/100 g/day in wk −3..−1/+1..+4/+5..+8), multiparious cows, week +2
  True Protein Content of Produced Milk: 3.13 weight %
Pre/Post Trial #2 (75/75/100 g/day in wk −3..−1/+1..+4/+5..+8), multiparious cows, week +3
  True Protein Content of Produced Milk: 2.89 weight %
Pre/Post Trial #2 (75/75/100 g/day in wk −3..−1/+1..+4/+5..+8), multiparious cows, week +4
  True Protein Content of Produced Milk: 2.77^b weight %
Pre/Post Trial #2 (75/75/100 g/day in wk −3..−1/+1..+4/+5..+8), multiparious cows, week +5
  True Protein Content of Produced Milk: 2.70 weight %
Pre/Post Trial #2 (75/75/100 g/day in wk −3..−1/+1..+4/+5..+8), multiparious cows, week +6
  True Protein Content of Produced Milk: 2.69 weight %
Pre/Post Trial #2 (75/75/100 g/day in wk −3..−1/+1..+4/+5..+8), multiparious cows, week +7
  True Protein Content of Produced Milk: 2.64 weight %
Pre/Post Trial #2 (75/75/100 g/day in wk −3..−1/+1..+4/+5..+8), multiparious cows, week +8
  True Protein Content of Produced Milk: 2.61 weight %
Pre/Post Trial #2 (75/75/100 g/day in wk −3..−1/+1..+4/+5..+8), multiparious cows, weeks +1 through +4
  True Protein Content of Produced Milk: 3.18 weight %
Pre/Post Trial #2 (75/75/100 g/day in wk −3..−1/+1..+4/+5..+8), multiparious cows, weeks +1 through +8
  True Protein Content of Produced Milk: 2.91 weight %
Pre/Post Trial #2 (75/75/100 g/day in wk −3..−1/+1..+4/+5..+8), multiparious cows, weeks +5 through +8
  True Protein Content of Produced Milk: 2.66 weight %
Average of means of Pre-Partum Trial #2, Pre/Post Trial #1 and Pre/Post Trial #2 versus Control Trial #2, multiparious cows, weeks +1 through +4
  increase in true protein concentration in milk: 3.8%
Average of means of Pre-Partum Trial #2, Pre/Post Trial #1 and Pre/Post Trial #2 versus Control Trial #2, multiparious cows, weeks +1 through +8
  increase in true protein concentration in milk: 2.5%
